# Results as given in paper PMC10906247, “From Functional Fatty Acids to Potent and Selective Natural-Product-Inspired Mimetics via Conformational Profiling” (ACS Central Science, 2024).
# Where “and” joins values, the source holds several entries; their conditions need not be identical. Identical values can stand only once. Like-named read-outs stand apart in the source and are kept apart here.
# What was measured:
# [1] = target: T1, TLX ligand binding domain (Homo sapiens, UniProt Q9Y466); experiment: TLX ligand sensing assay (AlphaScreen, RIP140 NR box peptide recruitment); assay type: biochemical; details: for TLX max. efficacy: oleic acid = 100
# T1 construct: purchased NovAliX SAS, Strasbourg, France
# GPR40 (FFAR1) = GPR40 (FFAR1) (Homo sapiens, UniProt O14842); experiment: PathHunter β-arrestin assay (Eurofins Discovery), GPR40; assay type: cell-based; details: for GPR40 max. efficacy: oleic acid = 100; for GPR40 potency relative to oleic acid: EC50 ratio vs control oleic acid
# Description: (§1) With these compounds in hand, attention was directed at evaluating their properties as ligands to GPR40, GPR120,[24] and TLX. Initial profiling experiments were conducted targeting the GPCR targets at a single concentration (15 μM) in a commercially available β-arrestin assay.
# (§2) Functional assays at GPR40 and GPR120 were conducted by Eurofins Discovery services using their PathHunter® b-Arrestin assay that monitors the activation of a GPCR in a homogenous, non-imaging assay format using a technology developed by DiscoverX called Enzyme Fragment Complementation (EFC) with b-galactosidase (b-Gal) as the functional reporter. b-Arrestin GPCR cell lines built on the principles of EFC are engineered to co-express the ProLinkTM (PK) tagged GPCR and the Enzyme Acceptor (EA) tagged b-Arrestin. Activation of the GPCR-PK induces b-Arrestin-EA recruitment, forcing complementation of the two b-galactosidase enzyme fragments (EA and PK). The resulting functional enzyme hydrolyzes substrate to generate chemiluminescent […]
# (§3) Additional information can be found at: www.eurofinsdiscovery.com/solution/b-arrestin Below are dose-response curves generated from Eurofins Discovery services for activity of ligands depicted in Figure 6B at GPR40 (FFAR1) and GPR120. […]
# GPR120 = target: T2, GPR120 (Homo sapiens, UniProt Q5NUL3); experiment: PathHunter β-arrestin assay (Eurofins Discovery), GPR120; assay type: cell-based; details: for EC50: β-arrestin assay, read-out: GPR120 EC50 measured; for GPR120 max. efficacy: oleic acid = 100
# T2 sequence (Q5NUL3 1-361): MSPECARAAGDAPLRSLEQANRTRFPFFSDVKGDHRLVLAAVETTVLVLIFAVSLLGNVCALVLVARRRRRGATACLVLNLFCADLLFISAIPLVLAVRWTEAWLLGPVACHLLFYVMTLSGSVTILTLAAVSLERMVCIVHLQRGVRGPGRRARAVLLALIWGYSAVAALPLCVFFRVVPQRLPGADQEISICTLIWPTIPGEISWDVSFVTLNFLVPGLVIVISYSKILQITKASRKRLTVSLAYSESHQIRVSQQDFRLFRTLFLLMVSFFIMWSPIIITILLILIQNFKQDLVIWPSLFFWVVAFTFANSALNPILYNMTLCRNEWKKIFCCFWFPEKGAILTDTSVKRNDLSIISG
# Description: as §1, §2, §3
# GPR40 = details: GW9508; read-out: GPR40 EC50 historical; cited from earlier work
# [2] = Metabolic stability / intrinsic clearance in cryopreserved human hepatocytes; details: for Half-life, single replicates (1st, 2nd, 3rd) / half-life at 1 µM: human hepatocytes; for Half-life, single replicates (1st, 2nd, 3rd) / half-life at 1 µM / % Compound Remaining, mean / % Compound Remaining, single replicates (1st, 2nd, 3rd): 1.0E-06 M; for hepatocyte CLint at 1 µM / half-life at 1 µM: human
# Description: To gain insight into potential metabolic issues, a preliminary assessment of 1-E and 3-C in a metabolic stability assay utilizing human hepatocytes was conducted.
# 7.1. ADME-Tox: In Vitro Metabolism
# Intrinsic clearance (cr yopreserved hepatocytes, human)
# Note: Unit of Clint is µ L/min/mg for microsomes, S9 and UGT assa ys; µL/min/pmol for CYP assays; µ L/min/Million cells for hepatocyte assays […]
# 8.1. Experimental Conditions
# 8.1.1. ADME-Tox: In Vitro Metabolism
# 8.2. Analysis and expression of results
# 8.2.1. ADME-Tox: In Vitro Metabolism
# Intrinsic Clearance (microsomes, S9, cryopreserved hepatocytes, reco mbinant CYP, recombinant UGT) Metabolic stability, expressed as percent of the parent compound remaining , was calculated by comparing the peak area of the compound at the time point relative to that at time -0. The ha lf-life (T1/2) was estimated from the slope of the initial linear range of the logarithmic curve of compound remaining (%) vs. time, assu ming the first -order kinetics. The apparent intrinsic cleara nce (CLint, in µL/min/pmol, µL/min/mg or µL/min/Mcell ) was calculated according to the following formula: […]
# T1/2*(mg protein/µL or million cells/µL or pmol CYP iso zyme/µL)
# [3] = ALPHA normalized, supplement, read-out: TLX EC50 (dose-response curves)
# [4] = dose-response, β-arrestin assay, read-out: GPR40 EC50 measured
# [5] = maximal efficacy measured at 100 μM
# [6] = cryopreserved human hepatocytes
# [7] = cryopreserved human hepatocytes, Half-life (mean)
# [8] = coactivator recruitment, read-out: TLX EC50
# Chain of GPR40 (FFAR1) (O14842 whole entry): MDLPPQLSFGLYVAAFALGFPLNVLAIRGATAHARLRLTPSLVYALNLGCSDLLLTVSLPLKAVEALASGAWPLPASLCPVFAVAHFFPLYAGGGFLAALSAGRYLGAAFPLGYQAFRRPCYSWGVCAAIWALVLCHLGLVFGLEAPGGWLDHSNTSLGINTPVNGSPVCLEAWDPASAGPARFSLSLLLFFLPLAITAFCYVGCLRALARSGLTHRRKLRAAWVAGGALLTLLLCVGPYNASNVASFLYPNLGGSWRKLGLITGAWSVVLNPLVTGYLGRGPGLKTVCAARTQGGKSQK
# T1 sequence (Q9Y466 155-383 limits assumed): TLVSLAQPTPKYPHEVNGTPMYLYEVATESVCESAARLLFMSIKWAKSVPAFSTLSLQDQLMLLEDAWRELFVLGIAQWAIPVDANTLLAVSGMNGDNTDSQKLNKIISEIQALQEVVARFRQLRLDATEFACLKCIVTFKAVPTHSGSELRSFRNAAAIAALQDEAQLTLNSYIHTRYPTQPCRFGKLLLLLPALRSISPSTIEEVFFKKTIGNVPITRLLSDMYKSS
structure (smiles),measurement,setting,value
CCCCCCCCCC/C=C(/C)C/C(C)=C/[C@H](C)CC(=O)O [1-A],EC50,[1]; [3],2180 nM
CCC[C@H](C)/C=C(/C)C/C(C)=C/[C@H](C)CCCCCCCC(=O)O [4-E],EC50,[1]; [3],1320 nM
CCCCC[C@@H](C)/C=C(/C)C/C(C)=C/[C@@H](C)CCCCCC(=O)O [3-D],EC50,[1]; [3],1170 nM
CCC[C@H](C)/C=C(/C)C/C(C)=C/[C@@H](C)CCCCCCCC(=O)O [4-F],EC50,[1]; [3],1890 nM
CCCCCCCCC[C@@H](C)/C=C(/C)C/C(C)=C/[C@H](C)CC(=O)O [1-C],EC50,GPR40 (FFAR1); [4],7800 nM
same,GPR40 max. efficacy,GPR40 (FFAR1); dose-response,109%
same,EC50,GPR120; dose-response,> 51000 nM
same,GPR120 max. efficacy,GPR120; [5],29%
same,EC50,[1]; [3],3120 nM
CCCCCCC[C@H](C)/C=C(/C)C/C(C)=C/[C@H](C)CCCC(=O)O [2-E],GPR40 potency relative to oleic acid,GPR40 (FFAR1),~7 times
same,EC50,GPR40 (FFAR1); [4],5000 nM and ~5000 nM
same,GPR40 max. efficacy,GPR40 (FFAR1); dose-response,68%
same,selectivity for GPR120,GPR120; GPR120 over GPR40,5 fold
same,EC50,GPR120; dose-response,1100 nM
same,GPR120 max. efficacy,GPR120; dose-response,35%
same,EC50,[1]; [3],1310 nM
"O=C(O)CCc1ccc(NCc2cccc(Oc3ccccc3)c2)cc1 [GW9508, reference compound]",EC50,GPR40 (FFAR1); [4],1000 nM
same,GPR40 max. efficacy,GPR40 (FFAR1); dose-response,229%
same,EC50,"GPR40 (FFAR1); three independent assays behind the average, read-out: GPR40 EC50, independent assays",1500 nM and 980 nM and 700 nM
same,GPR120 max. efficacy,GPR120; dose-response,87%
same,EC50,GPR40,47 nM
CCCCCCCCC[C@H](C)/C=C(/C)C/C(C)=C/[C@H](C)CC(=O)O [1-E],GPR40 potency relative to oleic acid,GPR40 (FFAR1),14 times
same,EC50,GPR40 (FFAR1); [4],2600 nM
same,GPR40 max. efficacy,GPR40 (FFAR1); dose-response,75%
same,EC50,GPR120; dose-response,> 47000 nM
same,GPR120 max. efficacy,GPR120; [5],32%
same,EC50,[1]; [3],1680 nM
same,"Half-life, single replicates (1st, 2nd, 3rd)",[2]; listed as GCM/LEM 1-E,3.445 h and 2.168 h and 4.453 h
same,hepatocyte CLint at 1 µM,[2]; [6],5.4 µL/min/1e6 cells
same,half-life at 1 µM,[2]; [7],3.35 h
same,"% Compound Remaining, mean",[2]; incubation 30 minutes,96 % remaining
same,"% Compound Remaining, single replicates (1st, 2nd, 3rd)","[2]; incubation 30 minutes, listed as GCM/LEM 1-E",99.4 % remaining and 103.0 % remaining and 86.6 % remaining
same,"% Compound Remaining, mean",[2]; incubation 60 minutes,98 % remaining
same,"% Compound Remaining, single replicates (1st, 2nd, 3rd)","[2]; incubation 60 minutes, listed as GCM/LEM 1-E",83.9 % remaining and 103.8 % remaining and 106.9 % remaining
same,"% Compound Remaining, mean",[2]; incubation 90 minutes,85 % remaining
same,"% Compound Remaining, single replicates (1st, 2nd, 3rd)","[2]; incubation 90 minutes, listed as GCM/LEM 1-E",79.1 % remaining and 80.4 % remaining and 96.1 % remaining
same,"% Compound Remaining, mean",[2]; incubation 120 minutes,61 % remaining
same,"% Compound Remaining, single replicates (1st, 2nd, 3rd)","[2]; incubation 120 minutes, listed as GCM/LEM 1-E",67.8 % remaining and 50.9 % remaining and 64.3 % remaining
"CCN(CC)CCN1C(=O)CN=C(c2ccccc2F)c2cc(Cl)ccc21 [Flurazepam, reference compound]","Half-life, single replicates (1st, 2nd, 3rd)",[2],0.797 h and 0.895 h
same,hepatocyte CLint at 1 µM,[2]; hepatocytes,19.3 µL/min/1e6 cells
same,half-life at 1 µM,"[2]; hepatocytes, Half-life (mean)",0.85 h
same,half-life at 1 µM,"[2]; hepatocytes, Half-life, single replicates (1st, 2nd, 3rd)",0.882 h
CCCCCC/C=C(/C)C/C(C)=C/[C@H](C)CCCCCC(=O)O [3-A],EC50,[1]; [3],1560 nM
CCCCCCCC/C=C(/C)C/C(C)=C/[C@@H](C)CCCC(=O)O [2-B],EC50,[1]; [3],3080 nM
CCCCC[C@H](C)/C=C(/C)C/C(C)=C/[C@@H](C)CCCCCC(=O)O [3-F],EC50,[1]; [3],892 nM
same,EC50,[1]; [8],900 nM
same,TLX max. efficacy,[1],71%
CCCC/C=C(/C)C/C(C)=C/[C@H](C)CCCCCCCC(=O)O [4-A],EC50,[1]; [3],1520 nM
CCCCC[C@@H](C)/C=C(/C)C/C(C)=C/[C@H](C)CCCCCC(=O)O [3-C],EC50,[1]; [3],818 nM
same,EC50,[1]; [8],800 nM
same,TLX max. efficacy,[1],66%
same,"Half-life, single replicates (1st, 2nd, 3rd)",[2]; listed as GCM/LEM 3-C,1.862 h and 1.848 h
same,hepatocyte CLint at 1 µM,[2]; [6],8.7 µL/min/1e6 cells
same,half-life at 1 µM,[2]; [7],1.9 h
same,half-life at 1 µM,"[2]; cryopreserved human hepatocytes, Half-life, single replicates (1st, 2nd, 3rd)",1.97 h
same,"% Compound Remaining, mean",[2]; incubation 30 minutes,96 % remaining
same,"% Compound Remaining, single replicates (1st, 2nd, 3rd)","[2]; incubation 30 minutes, listed as GCM/LEM 3-C",97.3 % remaining and 95.1 % remaining and 96.7 % remaining
same,"% Compound Remaining, mean",[2]; incubation 60 minutes,75 % remaining
same,"% Compound Remaining, single replicates (1st, 2nd, 3rd)","[2]; incubation 60 minutes, listed as GCM/LEM 3-C",72.5 % remaining and 71.7 % remaining and 79.8 % remaining
same,"% Compound Remaining, mean",[2]; incubation 90 minutes,57 % remaining
same,"% Compound Remaining, single replicates (1st, 2nd, 3rd)","[2]; incubation 90 minutes, listed as GCM/LEM 3-C",59.1 % remaining and 54.4 % remaining and 53.2 % remaining
same,"% Compound Remaining, mean",[2]; incubation 120 minutes,51 % remaining
same,"% Compound Remaining, single replicates (1st, 2nd, 3rd)","[2]; incubation 120 minutes, listed as GCM/LEM 3-C",53.3 % remaining and 52.1 % remaining and 48.9 % remaining
CCCC/C=C(/C)C/C(C)=C/[C@@H](C)CCCCCCCC(=O)O [4-B],EC50,[1]; [3],2970 nM
